Assays:
Type in all cases: physicochemical
[1] = Analysis of active substance: preservative concentration before and after storage in VI-containing polymer solution; conditions: for active-substance concentration, 0 d, RT: before storage; for active-substance concentration, 14 d, 40° C.: storage 14 d at 40° C.; for active-substance concentration, 28 d, 40° C.: storage 28 d at 40° C.; for active-substance concentration, 60 d 40° C.: storage 60 d at 40° C.
Protocol: Stability of Preservatives in VI-Containing Polymers:
The following stabilizers for VI-containing polymers (here: aqueous solution of a copolymer of vinylpyrrolidone and vinylimidazole) were tested.
MIT, BIT, CMIT, OIT, DCOIT and iodopropynyl butyl carbamate were determined by RP chromatography with UV detection after dilution of the sample to be tested. An RP18 column was used for this purpose, with an eluent composed of an acid-methanol mixture under isocratic conditions.

[2] = Iodine color number according to DIN 6162:2014-09
[3] = Physical stability; visual assessment (color, turbidity, phase separation); set-up: key: ++: no discernible change with respect to color, turbidity or phase separation; +: marginal change in color number, somewhat increased Tyndall effect but no turbidity; 0: easily discernible increase in color number and moderate turbidity−no phase separation; −: turbidity and change in color number readily discernible by visual assessment; −−: strong color change with strong turbidity and incipient phase separation
Description: Physical stability; visual assessment according to:
++=no discernible change with respect to color, turbidity or phase separation; +=marginal change in color number, somewhat increased Tyndall effect but no turbidity; 0=easily discernible increase in color number and moderate turbidity−no phase separation; − turbidity and change in color number readily discernible by visual assessment; −− strong color change with strong turbidity and incipient phase separation.
Before storage, all batches could be rated ++ (no turbidity or phase separation; no influence of the biocide on the color number of the product).

[4] = Polymer P5 (HP56) with stabilizer

CCCCCCCCCC[N+](C)(C)CCCCCCCCCC.[Cl-] [DDAC, didecyldimethylammonium chloride]
active-substance concentration, 0 d, RT ([1]; in Polymer P1): 950 ppm
active-substance concentration, 14 d, 40° C. ([1]; in Polymer P1): 950 ppm
active-substance concentration, 28 d, 40° C. ([1]; in Polymer P1): 940 ppm
active-substance concentration, 60 d 40° C. ([1]; in Polymer P1): 940 ppm
active-substance concentration, 0 d, RT ([1]; in Polymer P2): 950 ppm
active-substance concentration, 14 d, 40° C. ([1]; in Polymer P2): 950 ppm
active-substance concentration, 28 d, 40° C. ([1]; in Polymer P2): 940 ppm
active-substance concentration, 60 d 40° C. ([1]; in Polymer P2): 940 ppm
active-substance concentration, 0 d, RT ([1]; in Polymer P3): 950 ppm
active-substance concentration, 14 d, 40° C. ([1]; in Polymer P3): 950 ppm
active-substance concentration, 28 d, 40° C. ([1]; in Polymer P3): 940 ppm
active-substance concentration, 60 d 40° C. ([1]; in Polymer P3): 930 ppm
active-substance concentration, 0 d, RT ([1]; in Polymer P4): 950 ppm
active-substance concentration, 14 d, 40° C. ([1]; in Polymer P4): 950 ppm
active-substance concentration, 28 d, 40° C. ([1]; in Polymer P4): 942 ppm
active-substance concentration, 60 d 40° C. ([1]; in Polymer P4): 940 ppm
active-substance concentration, 0 d, RT ([1]; in Polymer P5 (HP56)): 950 ppm
active-substance concentration, 14 d, 40° C. ([1]; in Polymer P5 (HP56)): 950 ppm
active-substance concentration, 28 d, 40° C. ([1]; in Polymer P5 (HP56)): 940 ppm
active-substance concentration, 60 d 40° C. ([1]; in Polymer P5 (HP56)): 940 ppm
active-substance concentration, 0 d, RT ([1]; in Polymer P6): 950 ppm
active-substance concentration, 14 d, 40° C. ([1]; in Polymer P6): 950 ppm
active-substance concentration, 28 d, 40° C. ([1]; in Polymer P6): 950 ppm
active-substance concentration, 60 d 40° C. ([1]; in Polymer P6): 943 ppm
active-substance concentration, 0 d, RT ([1]; in Polymer P7): 950 ppm
active-substance concentration, 14 d, 40° C. ([1]; in Polymer P7): 947 ppm
active-substance concentration, 28 d, 40° C. ([1]; in Polymer P7): 945 ppm
active-substance concentration, 60 d 40° C. ([1]; in Polymer P7): 938 ppm
active-substance concentration, 0 d, RT ([1]; in Polymer P8): 950 ppm
active-substance concentration, 14 d, 40° C. ([1]; in Polymer P8): 950 ppm
active-substance concentration, 28 d, 40° C. ([1]; in Polymer P8): 940 ppm
active-substance concentration, 60 d 40° C. ([1]; in Polymer P8): 940 ppm
active-substance concentration, 0 d, RT ([1]; in Polymer P9): 950 ppm
active-substance concentration, 14 d, 40° C. ([1]; in Polymer P9): 950 ppm
active-substance concentration, 28 d, 40° C. ([1]; in Polymer P9): 944 ppm
active-substance concentration, 60 d 40° C. ([1]; in Polymer P9): 940 ppm
Iodine color number, 60 d 40° C. ([2]; Polymer P1 with stabilizer): 2.9
Iodine color number, start ([2]; Polymer P1 with stabilizer): 2.9
Iodine color number, 60 d 40° C. ([2]; Polymer P2 with stabilizer): 3.0
Iodine color number, start ([2]; Polymer P2 with stabilizer): 2.9
Iodine color number, 60 d 40° C. ([2]; Polymer P3 with stabilizer): 3.3
Iodine color number, start ([2]; Polymer P3 with stabilizer): 3.3
Iodine color number, 60 d 40° C. ([2]; Polymer P4 with stabilizer): 3.3
Iodine color number, start ([2]; Polymer P4 with stabilizer): 3.3
Iodine color number, 60 d 40° C. [2, 4]: 3.3
Iodine color number, start [2, 4]: 3.3
Iodine color number, 60 d 40° C. ([2]; Polymer P6 with stabilizer): 3.3
Iodine color number, start ([2]; Polymer P6 with stabilizer): 3.3
Iodine color number, 60 d 40° C. ([2]; Polymer P7 with stabilizer): 3.3
Iodine color number, start ([2]; Polymer P7 with stabilizer): 3.3
Iodine color number, 60 d 40° C. ([2]; Polymer P8 with stabilizer): 3.3
Iodine color number, start ([2]; Polymer P8 with stabilizer): 3.3
Iodine color number, 60 d 40° C. ([2]; Polymer P9 with stabilizer): 3.9
Iodine color number, start ([2]; Polymer P9 with stabilizer): 3.8
Physical stability, 60 d 40° C.* ([3]; Polymer P1 with stabilizer): ++
Physical stability, 60 d 40° C.* ([3]; Polymer P2 with stabilizer): ++
Physical stability, 60 d 40° C.* ([3]; Polymer P3 with stabilizer): ++
Physical stability, 60 d 40° C.* ([3]; Polymer P4 with stabilizer): ++
Physical stability, 60 d 40° C.* [3, 4]: ++
Physical stability, 60 d 40° C.* ([3]; Polymer P6 with stabilizer): ++
Physical stability, 60 d 40° C.* ([3]; Polymer P7 with stabilizer): ++
Physical stability, 60 d 40° C.* ([3]; Polymer P8 with stabilizer): ++
Physical stability, 60 d 40° C.* ([3]; Polymer P9 with stabilizer): ++
